Columns and labels:
[1] = biological target: T1, N-cadherin/Fc chimeric protein (Homo sapiens, UniProt P19022); experiment: Cadherin/Fc binding assay: phage ELISA on N-cadherin/Fc; set-up: key to ELISA Phage Binding to N-Cadherin/Fc Chimeric Protein 1.2 mM calcium / ELISA Phage Binding to N-Cadherin/Fc Chimeric Protein 2 mM EDTA / ELISA Phage Binding to Cadherin/Fc Chimeric Proteins N−: +: Phage bound to the chimeric protein; −: No phage bound to the chimeric protein
T1 construct: extracellular domain of human N-cadherin (Asp160-Ala724); purchased R&D Systems, Minneapolis, Minn
T1 sequence (P19022 160-724): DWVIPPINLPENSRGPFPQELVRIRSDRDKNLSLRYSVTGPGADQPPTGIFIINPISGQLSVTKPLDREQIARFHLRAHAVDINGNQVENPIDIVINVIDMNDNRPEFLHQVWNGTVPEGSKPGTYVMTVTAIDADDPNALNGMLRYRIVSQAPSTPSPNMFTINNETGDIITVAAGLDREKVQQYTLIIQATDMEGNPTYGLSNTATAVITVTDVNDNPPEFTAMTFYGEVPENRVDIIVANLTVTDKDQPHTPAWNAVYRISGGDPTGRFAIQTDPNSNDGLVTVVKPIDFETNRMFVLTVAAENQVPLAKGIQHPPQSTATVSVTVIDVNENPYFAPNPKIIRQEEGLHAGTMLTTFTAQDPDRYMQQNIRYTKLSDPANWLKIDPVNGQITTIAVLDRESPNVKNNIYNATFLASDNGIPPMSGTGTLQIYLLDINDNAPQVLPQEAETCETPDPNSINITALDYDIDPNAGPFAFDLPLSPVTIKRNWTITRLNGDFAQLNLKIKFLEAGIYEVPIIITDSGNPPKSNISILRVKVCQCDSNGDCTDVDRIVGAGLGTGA
Text: (§1) The peptide libraries, Ph.D.-C7C™ and Ph.D.-12™ (New England BioLabs) were used in this study. These libraries are composed of 2×10^9 randomized 7 amino acid sequences flanked by cysteine residues and linear 12 amino acid sequences, respectively. The amino acid sequences are incorporated into the minor coat protein, pIII, of M13 phage. The N-cadherin/Fc chimeric protein (R&D Systems, Minneapolis, Minn.) consists of the extracellular domain of human N-cadherin (Asp160-Ala724) and the Fc region of human IgG1. The E-cadherin/Fc chimeric protein (R&D Systems, Minneapolis, Minn.) consists of the extracellular domain of human E-cadherin (Asp155-Ile707) and the Fc region of human IgG1.
The binding of each clone to the cadherin/Fc chimeric proteins was confirmed by ELISA. Wells of ProBind microtiter plates (Falcon) were coated with either N-cadherin/Fc or E-cadherin/Fc chimeric protein (100 ng/well) or human IgG1 (which contains the Fc fragment) (100 ng/well). […] Non-coated wells were also used to exclude any phage that bound to the plastic surface. […] M13 phage without any insert were used to control the non-specific binding of the phage itself to the target. […] […] Horseradish peroxidase substrate, TMB (Sigma), was added to each well (100 μl/well and after color development the reaction was stopped by addition of 100 μl 0.5 M sulphuric acid to each well. The intensity of the color was measured at 450 nm.
(§2) The phage clones shown to bind to the N-cadherin/Fc chimeric protein by ELISA were also evaluated for their ability to bind to E-cadherin/Fc and VE-cadherin/Fc chimeric proteins. The phage clones shown to bind to the E-cadherin/Fc chimeric protein by ELISA were also evaluated for their ability to bind to N-cadherin/Fc and VE-cadherin/Fc chimeric proteins. The same ELISA protocol described in the previous section was used to perform this evaluation with the exception that the wells were coated with either 100 ng N-cadherin/Fc, E-cadherin/Fc or VE-cadherin/Fc chimeric protein (R&D Systems, Minneapolis, Minn.).

[2] = biological target: T2, E-cadherin/Fc chimeric protein (Homo sapiens, UniProt P12830); experiment: Cadherin/Fc binding assay: phage ELISA on E-cadherin/Fc; set-up: key: +: Phage bound to the chimeric protein; −: No phage bound to the chimeric protein
T2 construct: extracellular domain of human E-cadherin (Asp155-Ile707); purchased R&D Systems, Minneapolis, Minn
T2 sequence (P12830 155-707): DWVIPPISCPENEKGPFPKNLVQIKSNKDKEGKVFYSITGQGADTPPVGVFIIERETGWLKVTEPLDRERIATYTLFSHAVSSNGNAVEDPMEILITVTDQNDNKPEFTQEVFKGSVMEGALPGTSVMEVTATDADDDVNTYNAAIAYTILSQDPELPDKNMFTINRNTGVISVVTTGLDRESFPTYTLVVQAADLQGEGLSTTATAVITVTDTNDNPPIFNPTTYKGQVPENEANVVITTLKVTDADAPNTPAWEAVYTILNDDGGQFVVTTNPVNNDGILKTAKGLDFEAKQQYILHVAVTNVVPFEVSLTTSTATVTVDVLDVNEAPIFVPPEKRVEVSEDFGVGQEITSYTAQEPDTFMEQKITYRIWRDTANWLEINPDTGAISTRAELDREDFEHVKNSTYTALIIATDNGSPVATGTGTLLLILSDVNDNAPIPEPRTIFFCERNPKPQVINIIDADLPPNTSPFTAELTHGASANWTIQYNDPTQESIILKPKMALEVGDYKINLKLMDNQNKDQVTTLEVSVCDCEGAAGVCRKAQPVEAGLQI
Text: as §1
(§3) The binding of each clone to the cadherin/Fc chimeric proteins was confirmed by ELISA. Wells of ProBind microtiter plates (Falcon) were coated with either N-cadherin/Fc or E-cadherin/Fc chimeric protein (100 ng/well) or human IgG1 (which contains the Fc fragment) (100 ng/well). After blocking the nonspecific sites with TBS containing 3% BSA and 1.2 mM CaCl2 for 1 h at 37° C., phage clones (10^9 pfu) diluted in TBST containing 3% BSA and 1.2 mM CaCl2 (100 μl/well). Non-coated wells were also used to exclude any phage that bound to the plastic surface. After 1 h incubation at room temperature, wells were washed 3 times with TBST containing 3% BSA and 1.2 mM CaCl2. M13 phage without any insert were used to control the non-specific binding of the phage itself to the target. Monoclonal anti-M13 antibody conjugated to horseradish peroxidase (Amersham Biosciences, Piscataway, N.J.) was diluted in TBST containing 3% BSA and 1.2 mM CaCl2 (1:2,000) and added to each well (100 μl/well). After 1 h incubation at room temperature, wells were washed three times with TBST containing 3% BSA and 1.2 mM CaCl2 and once with TBS containing 1.2 mM CaCl2. Horseradish peroxidase substrate, TMB (Sigma), was added to each well (100 μl/well and after color development the reaction was stopped by addition of 100 μl 0.5 M sulphuric acid to each well. The intensity of the color was measured at 450 nm.
as §2

[3] = biological target: T3, VE-cadherin/Fc chimeric protein (Homo sapiens, UniProt P33151); experiment: Cadherin specificity: phage ELISA on VE-cadherin/Fc; type: binding; set-up: key: +: Phage bound to the chimeric protein; −: No phage bound to the chimeric protein
T3 construct: purchased R&D Systems, Minneapolis, Minn
Method: as §3, §2

[4] = Table 2, Ph.D.-C7C library clones
[5] = Table 4, Ph.D.-12 library clones
[6] = Table 7, Ph.D.-12 clones selected on E-cadherin/Fc
[7] = Table 6, Ph.D.-C7C clones selected on E-cadherin/Fc

T3 sequence (P33151 with tags, fused parts or gaps limits assumed, species assumed): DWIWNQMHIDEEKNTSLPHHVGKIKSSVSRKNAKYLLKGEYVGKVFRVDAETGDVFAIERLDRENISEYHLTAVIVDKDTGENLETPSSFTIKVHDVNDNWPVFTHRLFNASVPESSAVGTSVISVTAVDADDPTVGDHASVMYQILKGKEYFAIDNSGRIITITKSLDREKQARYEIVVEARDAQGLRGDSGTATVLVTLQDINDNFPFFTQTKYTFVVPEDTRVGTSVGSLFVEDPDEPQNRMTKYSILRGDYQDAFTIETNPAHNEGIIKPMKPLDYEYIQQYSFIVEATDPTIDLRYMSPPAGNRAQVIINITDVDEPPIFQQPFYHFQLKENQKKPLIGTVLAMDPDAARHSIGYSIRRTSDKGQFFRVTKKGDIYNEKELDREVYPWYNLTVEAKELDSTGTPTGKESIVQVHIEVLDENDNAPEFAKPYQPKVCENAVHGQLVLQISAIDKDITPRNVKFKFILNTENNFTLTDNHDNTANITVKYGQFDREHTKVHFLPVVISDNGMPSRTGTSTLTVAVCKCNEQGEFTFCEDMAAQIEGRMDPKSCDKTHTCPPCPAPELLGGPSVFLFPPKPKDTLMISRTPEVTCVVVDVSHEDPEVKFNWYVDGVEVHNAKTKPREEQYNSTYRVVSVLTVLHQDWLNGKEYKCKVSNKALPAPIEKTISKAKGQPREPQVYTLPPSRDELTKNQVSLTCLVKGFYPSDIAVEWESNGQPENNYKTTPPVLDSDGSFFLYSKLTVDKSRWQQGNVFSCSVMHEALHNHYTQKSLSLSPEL

ELISA Phage Binding to N-Cadherin/Fc Chimeric Protein 1.2 mM calcium [1, 5] | ELISA Phage Binding to N-Cadherin/Fc Chimeric Protein 2 mM EDTA [1, 5] | ELISA Phage Binding to Cadherin/Fc Chimeric Proteins E− [2, 5] | ELISA Phage Binding to Cadherin/Fc Chimeric Proteins VE− [3, 5] | ELISA Phage Binding to Cadherin/Fc Chimeric Proteins N− [1, 6] | ELISA Phage Binding to Cadherin/Fc Chimeric Proteins E− [2, 6] | ELISA Phage Binding to Cadherin/Fc Chimeric Proteins VE− [3, 6] | Sequence | other results
+ | + | + | − |  |  |  | EWMIHYDSALTS [Nc 12-a6] | 
 |  |  |  | + | + | − | SWELYYPLRANL [Ec 12-a2] | 
 |  |  |  | + | + | − | QWTITYPKPPAL [Ec 12-13] | 
 |  |  |  | + | + | − | EWTFQWNSYPAD [Ec 12-10] | 
+ | + | + | − |  |  |  | SWLAVWPATGAS [Nc 12-a10] | 

Continued, sequence first:

Sequence | ELISA Phage Binding to N-Cadherin/Fc Chimeric Protein 1.2 mM calcium [1, 5] | ELISA Phage Binding to N-Cadherin/Fc Chimeric Protein 2 mM EDTA [1, 5] | ELISA Phage Binding to Cadherin/Fc Chimeric Proteins E− [2, 5] | ELISA Phage Binding to Cadherin/Fc Chimeric Proteins VE− [3, 5] | ELISA Phage Binding to Cadherin/Fc Chimeric Proteins N− [1, 6] | ELISA Phage Binding to Cadherin/Fc Chimeric Proteins E− [2, 6] | ELISA Phage Binding to Cadherin/Fc Chimeric Proteins VE− [3, 6] | other results
WEVCLTEKC [Nc 15] |  |  |  |  |  |  |  | ELISA Phage Binding to N-Cadherin/Fc Chimeric Protein 1.2 mM calcium [1, 4]: +; ELISA Phage Binding to N-Cadherin/Fc Chimeric Protein 2 mM EDTA [1, 4]: −; ELISA Phage Binding to Cadherin/Fc Chimeric Proteins E− [2, 4]: −; ELISA Phage Binding to Cadherin/Fc Chimeric Proteins VE− [3, 4]: −
NWFIDFPVYPPL [Nc 12-a1] | + | + | − | − |  |  |  | 
QWQLHWPASKQA [Ec 12-11] |  |  |  |  | + | + | − | 
KWELTYFANSFP [Nc 12-a3] | + | + | − | − |  |  |  | 
QWEIRYPWPSMG [Ec 12-a1] |  |  |  |  | + | + | − | 
WQFCYAQHC [Ec 2] |  |  |  |  |  |  |  | ELISA Phage Binding to Cadherin/Fc Chimeric Proteins N− [1, 7]: +; ELISA Phage Binding to Cadherin/Fc Chimeric Proteins E− [2, 7]: +; ELISA Phage Binding to Cadherin/Fc Chimeric Proteins VE− [3, 7]: −
EWFWSWPGYSNT [Ec 12-a13] |  |  |  |  | + | + | − | 
CSRPQSGLC [Ec a23] |  |  |  |  |  |  |  | ELISA Phage Binding to Cadherin/Fc Chimeric Proteins N− [1, 7]: +; ELISA Phage Binding to Cadherin/Fc Chimeric Proteins E− [2, 7]: +; ELISA Phage Binding to Cadherin/Fc Chimeric Proteins VE− [3, 7]: −

Source: patent publication US8603986B2, “Compounds and methods for modulating cadherin-mediated processes” (McGill University, priority 2005, dated 2013)
